In ChEMBL document CHEMBL1201862, “PubChem BioAssay data set” (2004):
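Growth conditions: 96-well plates. Treatment: test compound, 48 hours, 5 concentrations. Analysis: linear interpolation between bracketing concentrations; unreached endpoints set to highest concentration. GI50: concentration for 50% inhibition of growth.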 Calls of active or inactive are those of the source. Cut-off read from the data, not from the text of the source: active = GI50 up to about 1.1 µM and inactive = higher.

Tests used:
Experiment in all cases: NCI-60 cell line screen, 48 h
[1] = tested on: 786-0
[2] = tested on: A498
[3] = tested on: ACHN
[4] = tested on: BT-549
[5] = tested on: CAKI-1
[6] = tested on: HCC 2998
[7] = tested on: HL-60
[8] = tested on: Hs-578T
[9] = tested on: IGROV-1
[10] = tested on: KM12
[11] = tested on: LOX IMVI
[12] = tested on: MDA-MB-435
[13] = tested on: Malme-3M
[14] = tested on: NCI-H522
[15] = tested on: NCI/ADR-RES
[16] = tested on: RXF 393
[17] = tested on: SF-539
[18] = tested on: SNB-19
[19] = tested on: U-251
[20] = tested on: UO-31

Measured: GI50

C[N+](C)(C)CCN(Cc1cccs1)c1ccccn1
inactive: [1] > 100 µM | [2] > 100 µM | [3] > 100 µM | [4] 47.5 µM | [5] > 100 µM | [6] > 100 µM | [7] > 100 µM | [8] 74.5 µM | [9] > 100 µM | [10] > 100 µM | [11] > 100 µM | [12] > 100 µM | [13] > 100 µM | [14] 40.8 µM | [15] > 100 µM | [16] > 100 µM | [17] > 100 µM | [18] > 100 µM | [19] > 100 µM | [20] > 100 µM

O=C1CCCC2C3CC(CN12)C1CCCCN1C3.[O-][Cl+3]([O-])([O-])O (centres undefined)
inactive: [1] > 100 µM | [2] > 100 µM | [3] > 100 µM | [4] > 100 µM | [5] > 100 µM | [6] > 100 µM | [7] > 100 µM | [8] > 100 µM | [9] > 100 µM | [10] > 100 µM | [11] > 100 µM | [12] > 100 µM | [13] > 100 µM | [14] > 100 µM | [15] > 100 µM | [16] > 100 µM | [17] > 100 µM | [18] > 100 µM | [19] > 100 µM | [20] > 100 µM

CCOC(=O)C(NC(=O)c1cccc(Cl)c1)(N1CCN(c2cc3c(cc2F)c(=O)c(C(=O)O)cn3CC)CC1)C(F)(F)F (centres undefined)
inactive: [1] 14.7 µM | [2] 20.7 µM | [3] 15.7 µM | [4] 19.4 µM | [5] 23.7 µM | [6] 12.6 µM | [7] 4.47 µM | [8] 15.6 µM | [9] 18.3 µM | [10] 11.7 µM | [11] 17.7 µM | [12] 14.5 µM | [13] 18.2 µM | [14] 4.17 µM | [15] 39.8 µM | [16] 18.2 µM | [17] 15.2 µM | [18] 29.4 µM | [19] 6.7 µM | [20] 19.2 µM

CCCC[C@@H]1CCN2C[C@@H](O)[C@@H](O)[C@@H]2[C@H]1O
inactive: [1] > 100 µM | [2] > 100 µM | [3] > 100 µM | [4] > 100 µM | [5] > 100 µM | [6] > 100 µM | [7] > 100 µM | [8] > 100 µM | [9] > 100 µM | [10] > 100 µM | [11] > 100 µM | [12] > 100 µM | [13] > 100 µM | [14] > 100 µM | [15] > 100 µM | [16] > 100 µM | [17] > 100 µM | [18] > 100 µM | [19] > 100 µM | [20] > 100 µM

COC(=O)C1=CSC2(S1)C(C(=O)OC)=CSc1c2ssc1=O (centres undefined)
inactive: [1] 1.57 µM | [2] 6.28 µM | [3] 1.87 µM | [4] 2.7 µM | [5] 2.11 µM | [6] 3.01 µM | [7] 1.6 µM | [8] 2.36 µM | [9] 1.66 µM | [10] 3.9 µM | [11] 1.64 µM | [12] 1.72 µM | [13] 2 µM | [14] 1.49 µM | [15] 2.87 µM | [16] 1.92 µM | [17] 1.57 µM | [18] 6.05 µM | [19] 1.54 µM | [20] 1.84 µM

C=C(C)[C@@H]1CCC2=C[C@H](OC2=O)[C@@]2(C)C[C@@H]2C(=O)/C=C(/C)C(=O)[C@H]1OC(C)=O
inactive: [1] 11.4 µM | [2] 23.2 µM | [3] 17.3 µM | [4] 11.4 µM | [5] 14.2 µM | [6] 21.7 µM | [7] 58.6 µM | [8] 16.9 µM | [9] 14.1 µM | [10] 17.7 µM | [11] 7.78 µM | [12] 13.2 µM | [13] 12.1 µM | [14] 4.3 µM | [15] 26.5 µM | [16] 16 µM | [17] 7.13 µM | [18] 29.2 µM | [19] 28.6 µM | [20] 10.9 µM

CC(C)(C)c1cc(C2COC(=O)COCC(=O)OCCOCCOCCO2)cc(C(C)(C)C)c1O (centres undefined)
inactive: [1] 21.4 µM | [2] > 51.4 µM | [3] 19.6 µM | [4] > 57.5 µM | [5] 24.7 µM | [6] 14.5 µM | [7] > 31.6 µM | [8] 17.9 µM | [9] > 100 µM | [10] > 100 µM | [11] 31 µM | [12] 20.5 µM | [13] > 100 µM | [14] > 52.8 µM | [15] > 100 µM | [16] 20.7 µM | [17] 45.5 µM | [18] > 100 µM | [19] 34.3 µM | [20] 18.6 µM

COC(=O)c1c(CC(Cc2ccc3c(c2)CCCC3)C(=O)OC)ccc2c1CCCC2 (centres undefined)
inactive: [1] > 100 µM | [2] > 100 µM | [3] 45.1 µM | [4] > 100 µM | [5] > 100 µM | [6] 23.1 µM | [7] 16.6 µM | [8] > 100 µM | [9] > 100 µM | [10] 40.3 µM | [11] 43 µM | [12] 42.4 µM | [13] 38 µM | [14] > 100 µM | [15] > 100 µM | [16] 60.5 µM | [17] > 100 µM | [18] > 100 µM | [19] 98.2 µM | [20] 82.8 µM

OC1(c2ccc(Cl)cc2)c2ccccc2C2=Nc3ccccc3CN21 (centres undefined)
inactive: [1] 13.1 µM | [2] 27.6 µM | [3] 8.59 µM | [4] > 100 µM | [5] 58.3 µM | [6] > 71.4 µM | [7] 18.4 µM | [8] 23 µM | [9] 39.2 µM | [10] 28 µM | [11] 25.6 µM | [12] 79.3 µM | [13] 30.5 µM | [14] 25.1 µM | [15] 25 µM | [16] 21 µM | [17] 39.6 µM | [18] 36.1 µM | [19] 23.7 µM | [20] 34.4 µM

O=C(c1cccs1)N(C(=S)OCCOc1ccccc1)c1ccccc1
inactive: [1] 25.2 µM | [2] 25.5 µM | [3] 27.7 µM | [4] 20.8 µM | [5] 27.2 µM | [6] 24.7 µM | [7] 27.6 µM | [8] 58.6 µM | [9] 25.4 µM | [10] 26 µM | [11] 17.1 µM | [12] 17 µM | [13] 31.3 µM | [14] 23 µM | [15] 20.9 µM | [16] 23.6 µM | [17] 34.3 µM | [18] 29.4 µM | [19] 21.4 µM
